We go through three substances from paper PMC11024197 (Nature Communications, 2024).

Experiment [1] addresses T1, PEX14 NTD (Homo sapiens, UniProt O75381).
T1 construct: PEX14 NTD (1-104), expressed in E. coli with His6-SUMO tag, cleaved
Conditions: SD, n = 3; read-out: KD (µM) (Suppl. Table 2); KD (nM) (Suppl. Table 4).
Method: Isothermal titration calorimetry (ITC) measurements were performed as triplicates at 25 °C using a MicroCal PEAQ-ITC (Malvern Instruments Ltd. U.K) calorimeter. Buffer conditions were 20 mM Tris pH 7.5, 50 mM NaCl. For all titrations a titrant dilution control experiment was performed and subtracted before the data were fitted to a one-site binding model using the Malvern Analysis software.
PEX13 SH3 at a concentration of 35-48 µM was titrated with purchased 15mer peptides containing (di)aromatic penta peptides from PEX5 or PEX5 1-76 (W0) at concentration of 0.7-0.6 mM and PEX13 350-403 (FxxxF) at a concentration of 0.9-1 mM. […] The concentration of PEX14 was corrected with the fit, since it cannot be accurate measured at 280 nm owing to the extinction coefficient of only 1490.

Experiment [2] has as its target T1, PEX14 NTD. Set-up: method as in values quoted from other papers. Conditions: cited from earlier work.

Like-named read-outs stand apart in the source and are kept apart here.

T1 sequence (O75381 1-104): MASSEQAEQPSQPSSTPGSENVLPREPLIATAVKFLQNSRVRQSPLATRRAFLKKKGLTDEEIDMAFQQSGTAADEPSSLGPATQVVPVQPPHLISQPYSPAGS

The Kd is the free concentration of one partner at which half of the binding sites on the other are occupied at equilibrium, for simple one-to-one binding. Take PEX5 1-76 (contains […]) [PEX5 W0]: the Kd on PEX14 NTD [1] turned out to be 0.0551 µM.

PEX13 residues 261-403 [PEX13 SH3-CTR]: the Kd at PEX14 NTD [1] is 5.4 µM.

On to “PEX19 FxxxF motif (66-77 SQEKFFQELFDS in Fig. 3b; exact ligand of cited work not printed)”, for which the Kd on PEX14 NTD [2] was 9.2 µM.
